Laboratory results reported in patent US20220233549A1, “METHOD FOR ALPHAVIRUS INHIBITION” (priority 2019, published 2022).

What follows are compounds tested on CHIKV 181/clone25 (assay: CHIKV cytopathic effect (CPE) protection assay in Vero cells). Details: Chikungunya virus; CHIKV 181/clone25, Vero cells, MOI=0.01, 48 hrs, protection from CPE (crystal violet, absorbance 595nm).
Type: cell-based
In the case of CCN1C(=O)C(CC(=O)N2CCCCCC2)Sc2ncccc21 (centres unmarked) [Example 45, 3-(2-(azepan-1-yl)-2-oxoethyl)-1-ethyl-1H-pyrido[2,3-b][1,4]thiazin-2(3H)-one], the EC50 is reported as > 100 µM. With CCN1C(=O)C(CC(=O)NCC2CC2)Sc2ncccc21 (centres unmarked) [Example 46, N-(cyclopropylmethyl)-2-(1-ethyl-2-oxo-2,3-dihydro-1H-pyrido[2,3-b][1,4]thiazin-3-yl)acetamide] the EC50 was > 100 µM. O=C(CC1Sc2ncccc2NC1=O)NCC1CCSCC1 (centres unmarked) [Example 47, 2-(2-oxo-2,3-dihydro-1H-pyrido[2,3-b][1,4]thiazin-3-yl)-N-((tetrahydro-2H-thiopyran-4-yl)methyl)acetamide] was tested, and the EC50 was 10 to 49.9 µM. For O=C(CC1Sc2ncccc2NC1=O)NCC1CCOCC1 (centres unmarked) [Example 48, 2-(2-oxo-2,3-dihydro-1H-pyrido[2,3-b][1,4]thiazin-3-yl)-N-((tetrahydro-2H-pyran-4-yl)methyl)acetamide], the EC50 was > 100 µM. For O=C(CC1Sc2ncccc2NC1=O)NCc1ccc(Cl)c(Cl)c1 (centres unmarked) [Example 49, N-(3,4-dichlorobenzyl)-2-(2-oxo-2,3-dihydro-1H-pyrido[2,3-b][1,4]thiazin-3-yl)acetamide], the EC50 was > 100 µM. In the case of O=C(CC1Sc2ncccc2NC1=O)NCc1ccc(F)c(F)c1 (centres unmarked) [Example 50, N-(3,4-difluorobenzyl)-2-(2-oxo-2,3-dihydro-1H-pyrido[2,3-b][1,4]thiazin-3-yl)acetamide], the EC50 is reported as 10 to 49.9 µM. Work on O=C(CC1Sc2ncccc2NC1=O)NCc1cc(F)c(F)c(F)c1 (centres unmarked) [Example 51, 2-(2-oxo-2,3-dihydro-1H-pyrido[2,3-b][1,4]thiazin-3-yl)-N-(3,4,5-trifluorobenzyl)acetamide] yielded an EC50 of 50 to 99.9 µM. For O=C(CC1Sc2ncccc2NC1=O)NCc1cc(F)cc(F)c1 (centres unmarked) [Example 52, N-(3,5-difluorobenzyl)-2-(2-oxo-2,3-dihydro-1H-pyrido[2,3-b][1,4]thiazin-3-yl)acetamide], the EC50 was > 100 µM. In the case of O=C(CC1Sc2ncccc2NC1=O)NCc1ccc(Cl)cc1 (centres unmarked) [Example 53, N-(4-chlorobenzyl)-2-(2-oxo-2,3-dihydro-1H-pyrido[2,3-b][1,4]thiazin-3-yl)acetamide], the EC50 is reported as 10 to 49.9 µM. O=C(CC1Sc2ncccc2NC1=O)NCc1cccc(Cl)c1 (centres unmarked) [Example 54, N-(3-chlorobenzyl)-2-(2-oxo-2,3-dihydro-1H-pyrido[2,3-b][1,4]thiazin-3-yl)acetamide] was tested, and the EC50 was > 100 µM. O=C(CC1Sc2ncccc2NC1=O)NCc1cccc(F)c1 (centres unmarked) [Example 55, N-(3-fluorobenzyl)-2-(2-oxo-2,3-dihydro-1H-pyrido[2,3-b][1,4]thiazin-3-yl)acetamide] was tested, and the EC50 was > 100 µM. With O=C(CC1Sc2ncccc2NC1=O)NCc1ccc(F)cc1 (centres unmarked) [Example 56, N-(4-fluorobenzyl)-2-(2-oxo-2,3-dihydro-1H-pyrido[2,3-b][1,4]thiazin-3-yl)acetamide] the EC50 was < 10 µM. Compound O=C(CC1Sc2ncccc2NC1=O)NCCc1ccc(F)cc1 (centres unmarked) [Example 57, N-(4-fluorophenethyl)-2-(2-oxo-2,3-dihydro-1H-pyrido[2,3-b][1,4]thiazin-3-yl)acetamide] has an EC50 of 10 to 49.9 µM. Compound O=C(CC1Sc2ncccc2NC1=O)NCCC1CCCCC1 (centres unmarked) [Example 58, N-(2-cyclohexylethyl)-2-(2-oxo-2,3-dihydro-1H-pyrido[2,3-b][1,4]thiazin-3-yl)acetamide] has an EC50 of 10 to 49.9 µM. In the case of O=C(CC1Sc2ccccc2NC1=O)NCC1CCCCC1 (centres unmarked) [Example 59, N-(cyclohexylmethyl)-2-(3-oxo-3,4-dihydro-2H-benzo[b][1,4]thiazin-2-yl)acetamide], the EC50 is reported as > 100 µM. Compound O=C(CC1Sc2ncccc2NC1=O)NCC1CCC(F)(F)CC1 (centres unmarked) [Example 60, N-((4,4-difluorocyclohexyl)methyl)-2-(2-oxo-2,3-dihydro-1H-pyrido[2,3-b][1,4]thiazin-3-yl)acetamide] has an EC50 of 10 to 49.9 µM. In the case of CCC(CC)CNC(=O)CC1Sc2ncccc2NC1=O (centres unmarked) [Example 61, N-(2-ethylbutyl)-2-(2-oxo-2,3-dihydro-1H-pyrido[2,3-b][1,4]thiazin-3-yl)acetamide], the EC50 is reported as 10 to 49.9 µM. Compound O=C(CC1Sc2ncccc2NC1=O)NCC1CCCCCC1 (centres unmarked) [Example 62, N-(cycloheptylmethyl)-2-(2-oxo-2,3-dihydro-1H-pyrido[2,3-b][1,4]thiazin-3-yl)acetamide] has an EC50 of 10 to 49.9 µM. In the case of O=C(CC1Sc2ncccc2NC1=O)NCC1CCCC1 (centres unmarked) [Example 63, N-(cyclopentylmethyl)-2-(2-oxo-2,3-dihydro-1H-pyrido[2,3-b][1,4]thiazin-3-yl)acetamide], the EC50 is reported as < 10 µM. With CC(C)(C)CCNC(=O)CC1Sc2ncccc2NC1=O (centres unmarked) [Example 64, N-(3,3-dimethylbutyl)-2-(2-oxo-2,3-dihydro-1H-pyrido[2,3-b][1,4]thiazin-3-yl)acetamide] the EC50 was > 100 µM. For O=C(CC1Nc2ncccc2NC1=O)NCC1CCCCC1 (centres unmarked) [Example 65, N-(cyclohexylmethyl)-2-(2-oxo-1,2,3,4-tetrahydropyrido[2,3-b]pyrazin-3-yl)acetamide], the EC50 was > 100 µM. For CC1(CNC(=O)CC2Sc3ncccc3NC2=O)CCCCC1 (centres unmarked) [Example 66, N-((1-methylcyclohexyl)methyl)-2-(2-oxo-2,3-dihydro-1H-pyrido[2,3-b][1,4]thiazin-3-yl)acetamide], the EC50 was < 10 µM. Compound CC(C)CCCNC(=O)CC1Sc2ncccc2NC1=O (centres unmarked) [Example 67, N-(4-methylpentyl)-2-(2-oxo-2,3-dihydro-1H-pyrido[2,3-b][1,4]thiazin-3-yl)acetamide] has an EC50 of 10 to 49.9 µM. CC(C)(C)CCCNC(=O)CC1Sc2ncccc2NC1=O (centres unmarked) [Example 68, N-(4,4-dimethylpentyl)-2-(2-oxo-2,3-dihydro-1H-pyrido[2,3-b][1,4]thiazin-3-yl)acetamide] gave an EC50 of 10 to 49.9 µM. Compound CC1(C)CCC(CNC(=O)CC2Sc3ncccc3NC2=O)CC1 (centres unmarked) [Example 69, N-((4,4-dimethylcyclohexyl)methyl)-2-(2-oxo-2,3-dihydro-1H-pyrido[2,3-b][1,4]thiazin-3-yl)acetamide] has an EC50 of 10 to 49.9 µM. In the case of CCCCNC(=O)CC1Sc2ncccc2NC1=O (centres unmarked) [Example 70, N-butyl-2-(2-oxo-2,3-dihydro-1H-pyrido[2,3-b][1,4]thiazin-3-yl)acetamide], the EC50 is reported as 50 to 99.9 µM. CCCCCNC(=O)CC1Sc2ncccc2NC1=O (centres unmarked) [Example 71, 2-(2-oxo-2,3-dihydro-1H-pyrido[2,3-b][1,4]thiazin-3-yl)-N-pentylacetamide] was tested, and the EC50 was 10 to 49.9 µM. O=C(CC1Sc2ncccc2NC1=O)NCCCC(F)(F)F (centres unmarked) [Example 72, 2-(2-oxo-2,3-dihydro-1H-pyrido[2,3-b][1,4]thiazin-3-yl)-N-(4,4,4-trifluorobutyl)acetamide] was tested, and the EC50 was > 100 µM. O=C(CC1CCCCC1)NCC1Sc2ncccc2NC1=O (centres unmarked) [Example 73, 2-cyclohexyl-N-((2-oxo-2,3-dihydro-1H-pyrido[2,3-b][1,4]thiazin-3-yl)methyl)acetamide] gave an EC50 of 10 to 49.9 µM. O=C(CC1Sc2ncccc2NC1=O)NCCC(F)(F)F (centres unmarked) [Example 74, 2-(2-oxo-2,3-dihydro-1H-pyrido[2,3-b][1,4]thiazin-3-yl)-N-(3,3,3-trifluoropropyl)acetamide] was tested, and the EC50 was > 100 µM. For CCC(C)(C)CNC(=O)CC1Sc2ncccc2NC1=O (centres unmarked) [Example 75, N-(2,2-dimethylbutyl)-2-(2-oxo-2,3-dihydro-1H-pyrido[2,3-b][1,4]thiazin-3-yl)acetamide], the EC50 was < 10 µM. CCC1(CNC(=O)CC2Sc3ncccc3NC2=O)CCCCC1 (centres unmarked) [Example 76, N-((1-ethylcyclohexyl)methyl)-2-(2-oxo-2,3-dihydro-1H-pyrido[2,3-b][1,4]thiazin-3-yl)acetamide] was tested, and the EC50 was < 10 µM. O=C(CC1Sc2ncccc2NC1=O)NCC1(O)CCCCC1 (centres unmarked) [Example 77, N-((1-hydroxycyclohexyl)methyl)-2-(2-oxo-2,3-dihydro-1H-pyrido[2,3-b][1,4]thiazin-3-yl)acetamide] was tested, and the EC50 was < 10 µM. With O=C(CC1Sc2ncccc2NC1=O)NCC1(F)CCCCC1 (centres unmarked) [Example 78, N-((1-fluorocyclohexyl)methyl)-2-(2-oxo-2,3-dihydro-1H-pyrido[2,3-b][1,4]thiazin-3-yl)acetamide] the EC50 was < 10 µM. With COC1(CNC(=O)CC2Sc3ncccc3NC2=O)CCCCC1 (centres unmarked) [Example 79, N-((1-methoxycyclohexyl)methyl)-2-(2-oxo-2,3-dihydro-1H-pyrido[2,3-b][1,4]thiazin-3-yl)acetamide] the EC50 was < 10 µM. NC1(CNC(=O)CC2Sc3ncccc3NC2=O)CCCCC1 (centres unmarked) [Example 80, N-((1-aminocyclohexyl)methyl)-2-(2-oxo-2,3-dihydro-1H-pyrido[2,3-b][1,4]thiazin-3-yl)acetamide] was tested, and the EC50 was > 100 µM. With CCCOC1(CNC(=O)CC2Sc3ncccc3NC2=O)CCCCC1 (centres unmarked) [Example 81, 2-(2-oxo-2,3-dihydro-1H-pyrido[2,3-b][1,4]thiazin-3-yl)-N-((1-propoxycyclohexyl)methyl)ace-tamide] the EC50 was 10 to 49.9 µM. For COCC1(CNC(=O)CC2Sc3ncccc3NC2=O)CCCCC1 (centres unmarked) [Example 82, N-((1-(methoxymethyl)cyclohexyl)meth-yl)-2-(2-oxo-2,3-dihydro-1H-pyrido[2,3-b][1,4]thiazin-3-yl)acetamide], the EC50 was 50 to 99.9 µM. O=C(CC1Sc2cnccc2NC1=O)NCC1CCCCC1 (centres unmarked) [Example 83, N-(cyclohexylmethyl)-2-(2-oxo-2,3-dihydro-1H-pyrido[3,4-b][1,4]thiazin-3-yl)acetamide] was tested, and the EC50 was > 100 µM. O=C(CC1Sc2ccncc2NC1=O)NCC1CCCCC1 (centres unmarked) [Example 84, N-(cyclohexylmethyl)-2-(3-oxo-3,4-dihydro-2H-pyrido[4,3-b][1,4]thiazin-2-yl)acetamide] was tested, and the EC50 was > 100 µM. O=C(CC1Sc2ncccc2NC1=O)NCC1=CCCCC1 (centres unmarked) [Example 85, N-(cyclohex-1-en-1-ylmethyl)-2-(2-oxo-2,3-dihydro-1H-pyrido[2,3-b][1,4]thiazin-3-yl)acetamide] showed an EC50 of 10 to 49.9 µM. For O=C(CC1Sc2ncccc2NC1=O)NCC1CC=CCC1 (centres unmarked) [Example 86, N-(cyclohex-3-en-1-ylmethyl)-2-(2-oxo-2,3-dihydro-1H-pyrido[2,3-b][1,4]thiazin-3-yl)acetamide], the EC50 was < 10 µM. Work on O=C(CC1Sc2ncc(Br)cc2NC1=O)NCC1CCCCC1 (centres unmarked) [Example 87, 2-(7-bromo-2-oxo-2,3-dihydro-1H-pyrido[2,3-b][1,4]thiazin-3-yl)-N-(cyclohexylmethyl)acetamide] yielded an EC50 of 10 to 49.9 µM. O=C(CC1Cc2ncccc2NC1=O)NCC1CCCCC1 (centres unmarked) [Example 88, N-(cyclohexylmethyl)-2-(2-oxo-1,2,3,4-tetrahydro-1,5-naphthyridin-3-yl)acetamide] showed an EC50 of 10 to 49.9 µM.
